According to patent US6649635B2, “Heteroarylcarboxamide compounds active against protein tyrosine kinase related disorders” (Sugen, Inc., priority 1997, dated 2003):
Like-named read-outs stand apart in the source and are kept apart here.

Experiments:
FGFR = assay: FGF-induced DNA synthesis (BrdU incorporation) in 3T3/EGFRc7 cells; assay type: cell-based
Protocol: (§1) The following example illustrates the ability of the compounds of the invention to inhibit FGFR-stimulated and PDGFR-stimulated DNA synthesis in cells. DNA synthesis is required for many of the activities of FGFP and PDGFR including, but not limited to, cell proliferation. Uridine is added in one set of samples to overcome any contribution made by inhibition of DHOD and just evaluate the inhibition of PDGFR or FGFR signaling. (See Greene, et al., Biochem. Pharmacol., 50(6):861 (1995), Nair, et al., Immunology Letters, 47:171 (1995)).
(§2) (1) EGF: mouse EGF, 201; Toyobo,Co., Ltd. Japan; PDGF, Boehringer Mannheim, Germany; FGF, Gibco.
(§3) (2) BrdU Labeling Reagent: 10 mM, in PBS (pH7.4) Cat. No. 1 647 229, Boehringer Mannheim, Germany.
(§4) (3) FixDenat: fixation solution (ready to use), Cat. No. 1 647 229, Boehringer Mannheim, Germany.
(§5) (4) Anti-BrdU-POD: mouse monoclonal antibody conjugated with peroxidase, Cat. No. 1 647 229, Boehringer Mannheim, Germany.
(§6) (5) TMB Substrate Solution: tetramethylbenzidine (TMB), ready to use, Cat. No. 1 647 229, Boehringer Mannheim, Germany.
(§7) (6) PBS Washing Solution: 1×phosphate buffered saline, pH 7.4
(§8) (7) Albumin, Bovine (BSA): fraction V powder; A-8551, Sigma Chemical Co., USA.
(§9) (8) NIH3T3 clone C7 (3T3/EGFRc7)(Honegger et al., Cell 51:199-209, 1987)) engineered to over-express human EGF receptor.
(§10) These cells natively express FGFR and PDGFR.
(§11) (1) 3T3/EGFRc7 cells were seeded at 8000 cells/well in DMEM, 10% CS, 2 mM Gln in a 96 well plate. Cells are incubated overnight at 37 degrees C. in 5% CO2.
(§12) (2) After 24 hours, the cells were washed with PBS, and then serum starved in serum free medium (0%CS DMEM with 0.1% BSA) for 24 hours.
(3) On day 3, ligand (2n EGF or 1.5 nM FGF or 3.8 nM PDGF) prepared in DMEM with 0.1% BSA and 30 μM (final concentration) uridine) and test compound was added to the cells simultaneously.
The negative control wells received serum free DMEM with 0.1% BSA only; the positive control cells received ligand but no test compound. Test compound was prepared in serum free DMEM with ligand in a 96 well plate, and serially diluted for 7 test concentrations.
(4) After 20 hours of ligand activation, diluted BrdU labeling reagent (1:100 in DMEM, 0.1% BSA) was added and the cells were incubated with BrdU (final concentration=10 μM) for 1.5 hours.
(5) After incubation with labeling reagent, the medium was removed by decanting and tapping the inverted plate on a paper towel. FixDenat solution was added (50 μl/well) and the plates incubated at room temperature for 45 minutes on a plate shaker.
(6) The FixDenat solution was thoroughly removed by decanting and tapping the inverted plate on a paper towel. Milk is added (5% dehydrated milk in PBS, 200 μl/well) as a blocking solution and the plate was incubated for 30 minutes at room temperature on a plate shaker.
(7) The blocking solution was removed by decanting and the wells were washed once with PBS. Anti-BrdU-POD solution (1:100 dilution in PBS, 1% BSA) was added (100 μl/well) and the plate was incubated for 90 minutes at room temperature on a plate shaker.
(8) The antibody conjugate was thoroughly removed by decanting and rinsing the wells 5 times with PBS, and the plate dried by inverting and tapping on a paper towel.
(9) TMB substrate solution was added (100 μl/well) and incubated for 20 minutes at room temperature on a plate shaker until color development was sufficient for photometric detection.
(§13) (10) The absorbance of the samples was measured at 410 nm (in “dual wavelength” mode with a filter reading at 490 nm, as a reference wavelength) on a Dynatech ELISA plate reader.

C6 cells (glioblastoma) = assay: Subcutaneous xenograft experiment, inhibition of tumor growth in vivo; conditions: for inhibition (% of control): 30 mg/kg/day IP in DMSO, tumor volume
Protocol: Female athymic mice (BALB/c, nu/nu) were obtained from Simonsen Laboratories (Gilroy, Calif.). All animals were maintained under clean-room conditions in Micro-isolator cages with Alpha-dri bedding. They received sterile rodent chow and water ad libitum.
Cell lines were grown in Ham's F10 plus 5% fetal bovine serum (FBS) and 2 mM glutamine (GLN). All cell culture media, glutamine, and fetal bovine serum were purchased from Gibco Life Technologies (Grand Island, N.Y.) unless otherwise specified. All cells were grown in a humid atmosphere of 90-95% air and 5-10% CO2 at 37° C. All cell lines were routinely subcultured twice a week and were negative for mycoplasma as determined by the Mycotect method (Gibco).
Cells were harvested at or near confluency with 0.05% Trypsin-EDTA and pelleted at 450×g for 10 min. Pellets were resuspended in sterile PBS or media (without FBS) and the cells were implanted into the hindflank of the mice (8-10 mice per group 3×10^6 cells/animal). Tumor growth was measured over 3 weeks using venier calipers. Tumor volumes were calculated as a product of length×width×height unless otherwise indicated. P values were calculated using the Students' t-test. Cmpd. 1 in 50 μL excipient (DMSO) was delivered by IP bolus injection daily.

PDGFR = assay: PDGF-induced DNA synthesis (BrdU incorporation) in 3T3/EGFRc7 cells; assay type: cell-based; conditions: 3.8 nM PDGF, read-out: PDGF-induced (inhibition of DNA synthesis)
Protocol: as §1, §2, §3, §4, §5, §6, §7, §8, §9, §10, §11, §12
(§14) (3) On day 3, ligand (2n EGF or 1.5 nM FGF or 3.8 nM PDGF) prepared in DMEM with 0.1% BSA and 30 μM (final concentration) uridine) and test compound was added to the cells simultaneously. […]
as §13

human EGF receptor = target: T1, human EGF receptor (Homo sapiens, UniProt P00533); assay: EGF-induced DNA synthesis (BrdU incorporation) in 3T3/EGFRc7 cells; assay type: cell-based; conditions: read-out: EGF-induced (inhibition of DNA synthesis)
T1 construct: expressed in transfected cells; host or cells: NIH3T3 clone C7 (3T3/EGFRc7)
T1 sequence (P00533 25-1210): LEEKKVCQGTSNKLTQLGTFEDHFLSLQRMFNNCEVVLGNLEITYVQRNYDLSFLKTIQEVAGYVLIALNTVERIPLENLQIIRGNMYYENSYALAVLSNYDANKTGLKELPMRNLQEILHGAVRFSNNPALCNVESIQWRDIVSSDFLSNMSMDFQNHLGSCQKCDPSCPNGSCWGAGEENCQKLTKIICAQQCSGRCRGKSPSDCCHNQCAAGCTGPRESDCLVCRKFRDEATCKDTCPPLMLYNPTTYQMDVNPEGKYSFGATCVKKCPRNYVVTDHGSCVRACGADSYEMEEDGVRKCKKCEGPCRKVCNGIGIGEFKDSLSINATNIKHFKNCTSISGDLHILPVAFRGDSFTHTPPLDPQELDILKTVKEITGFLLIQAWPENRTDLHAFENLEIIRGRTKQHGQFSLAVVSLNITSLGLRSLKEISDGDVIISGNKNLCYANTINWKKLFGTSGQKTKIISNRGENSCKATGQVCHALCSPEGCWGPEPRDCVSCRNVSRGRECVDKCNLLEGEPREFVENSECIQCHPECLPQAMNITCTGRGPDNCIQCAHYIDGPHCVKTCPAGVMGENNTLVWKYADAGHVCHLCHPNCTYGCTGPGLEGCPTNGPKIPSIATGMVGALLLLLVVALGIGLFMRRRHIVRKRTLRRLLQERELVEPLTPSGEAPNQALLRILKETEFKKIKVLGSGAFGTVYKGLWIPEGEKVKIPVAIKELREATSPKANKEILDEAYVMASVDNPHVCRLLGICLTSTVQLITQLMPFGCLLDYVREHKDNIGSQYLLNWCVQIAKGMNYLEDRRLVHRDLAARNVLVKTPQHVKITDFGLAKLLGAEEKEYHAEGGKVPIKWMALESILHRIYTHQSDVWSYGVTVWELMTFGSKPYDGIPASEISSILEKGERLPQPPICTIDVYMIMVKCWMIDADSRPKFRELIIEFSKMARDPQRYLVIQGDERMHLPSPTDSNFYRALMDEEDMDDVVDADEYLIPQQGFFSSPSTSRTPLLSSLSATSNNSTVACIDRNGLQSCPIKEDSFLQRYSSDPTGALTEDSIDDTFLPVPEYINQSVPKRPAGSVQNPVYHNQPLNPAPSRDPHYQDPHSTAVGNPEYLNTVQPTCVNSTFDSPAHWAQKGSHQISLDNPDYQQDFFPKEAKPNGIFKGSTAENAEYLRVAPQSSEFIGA
Protocol: as §1, §2, §3, §4, §5, §6, §7, §8, §9, §10, §11, §12, §14, §13

[1] = FGF induced DNA synthesis, with added uridine (30 μM), read-out: IC50 + uridine
[2] = FGF induced DNA synthesis, without added uridine, read-out: IC50 − uridine
[3] = 1.5 nM FGF, Table 2 experiment, read-out: FGF-induced (inhibition of DNA synthesis)

| Structure (SMILES) | IC50 (FGFR; [1]) [µM] | IC50 (FGFR; [2]) [µM] | IC50 (FGFR; [3]) [µM] | IC50 (PDGFR) [µM] | IC50 (human EGF receptor) [µM] | also measured |
| --- | --- | --- | --- | --- | --- | --- |
| C/C(O)=C(\C#N)C(=O)Nc1ccc(C(F)(F)F)cc1 [A771726] | > 100 | 20 | – | – | – | – |
| Cc1c(-c2ccc(-c3ccccc3F)cc2)nc2ccc(F)cc2c1C(=O)O [brequinar] | > 100 | 1.6 | – | – | – | – |
| Cc1nocc1C(=O)Nc1ccc(C(F)(F)F)cc1 [cmpd. 1, 3-Methyl-4-[4-(trifluoromethyl)phenyl-aminocarbonyl]isoxazole] | 70 | 85 | 65 | 90 | > 100 | toxic effect at the dose tested (C6 cells (glioblastoma); 30 mg/kg/day IP, xenograft mice): no toxic effect; mortality (C6 cells (glioblastoma); Day 8, 30 mg/kg/day IP): 0; inhibition (% of control) (C6 cells (glioblastoma); Day 8): 34 % of control; mortality (C6 cells (glioblastoma); Day 10, 30 mg/kg/day IP): 0; inhibition (% of control) (C6 cells (glioblastoma); Day 10): 42 % of control; mortality (C6 cells (glioblastoma); Day 13, 30 mg/kg/day IP): 0; inhibition (% of control) (C6 cells (glioblastoma); Day 13): 48 % of control; mortality (C6 cells (glioblastoma); Day 15, 30 mg/kg/day IP): 0; inhibition (% of control) (C6 cells (glioblastoma); Day 15): 47 % of control; mortality (C6 cells (glioblastoma); Day 17, 30 mg/kg/day IP): 0; inhibition (% of control) (C6 cells (glioblastoma); Day 17): 50 % of control; mortality (C6 cells (glioblastoma); Day 20, 30 mg/kg/day IP): 0; inhibition (% of control) (C6 cells (glioblastoma); Day 20): 52 % of control |
| Cc1n[nH]cc1C(=O)Nc1ccc(C(F)(F)F)cc1 [cmpd. 2, 3-Methyl-4-[4-(trifluoromethyl)phenylaminocarbonyl]pyrazole] | – | – | > 100 | 95 | > 100 | – |
| Cc1noc(C)c1C(=O)Nc1ccc(C(F)(F)F)cc1 [cmpd. 21, 3,5-Dimethyl-4-[4-(trifluoromethyl)phenylaminocarbonyl]isoxazole] | – | – | > 100 | > 100 | > 100 | – |
| Cc1oncc1C(=O)Nc1ccc(C(F)(F)F)cc1 [leflunomide, 4-(-(4′-trifluoromethylphenyl)carboxamido)-5-methyl-isoxazole] | 80 | 20 | – | – | – | – |
